Reference: ChEMBL document CHEMBL6078724, “Discovery of the first examples of right open reading frame kinase 2 (RIOK2) molecular glue degraders” (Eur J Med Chem, 2025)
Calls of active or inactive are those of the source. No cut-off for these calls is given here.

Key:
[1] = target: T1, E3 ubiquitin-protein ligase RNF126/Serine/threonine-protein kinase RIO2 (Homo sapiens, UniProt Q9BVS4+Q9BV68); assay: Molecular glue degradation activity at RNF126/RIOK2 in human MOLT-4 cells assessed as induction protein degradation incubated for 12 hrs by immunoblot analysis; assay type: cell-based
[2] = target: T1, E3 ubiquitin-protein ligase RNF126/Serine/threonine-protein kinase RIO2; assay: Molecular glue degradation activity at RNF126/RIOK2 in human MOLT-4 cells assessed as induction protein degradation at 1 uM incubated for 12 hrs by immunoblot analysis; assay type: cell-based
Target sequence in this assay (Q9BV68 2-311 partner limits assumed): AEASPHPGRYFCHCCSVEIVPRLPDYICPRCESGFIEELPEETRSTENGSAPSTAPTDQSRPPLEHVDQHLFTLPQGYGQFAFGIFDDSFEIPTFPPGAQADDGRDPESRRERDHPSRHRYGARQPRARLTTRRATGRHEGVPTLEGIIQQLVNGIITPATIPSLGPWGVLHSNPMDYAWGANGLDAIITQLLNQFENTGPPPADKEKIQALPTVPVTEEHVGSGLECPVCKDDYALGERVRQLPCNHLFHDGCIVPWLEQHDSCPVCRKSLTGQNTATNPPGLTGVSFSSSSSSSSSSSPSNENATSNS
Target sequence in this assay (Q9BVS4 whole entry): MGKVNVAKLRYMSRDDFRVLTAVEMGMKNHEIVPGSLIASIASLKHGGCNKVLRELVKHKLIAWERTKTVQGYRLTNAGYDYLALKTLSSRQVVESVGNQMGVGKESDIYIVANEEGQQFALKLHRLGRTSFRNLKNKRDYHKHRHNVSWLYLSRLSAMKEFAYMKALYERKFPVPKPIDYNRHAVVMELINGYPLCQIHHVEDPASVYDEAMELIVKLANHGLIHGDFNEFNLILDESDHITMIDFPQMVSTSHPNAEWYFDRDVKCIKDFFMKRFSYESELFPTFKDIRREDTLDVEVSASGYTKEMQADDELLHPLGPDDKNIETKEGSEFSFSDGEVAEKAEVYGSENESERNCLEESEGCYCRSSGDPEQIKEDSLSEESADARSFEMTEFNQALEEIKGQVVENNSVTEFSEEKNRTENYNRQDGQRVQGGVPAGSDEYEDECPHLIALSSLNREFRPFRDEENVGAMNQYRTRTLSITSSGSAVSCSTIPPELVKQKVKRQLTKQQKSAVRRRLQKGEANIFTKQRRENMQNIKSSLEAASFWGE

[3] = target: T1, E3 ubiquitin-protein ligase RNF126/Serine/threonine-protein kinase RIO2; assay: Molecular glue degradation activity at RNF126/RIOK2 in human MOLT-4 cells assessed as induction protein degradation at 1 uM incubated for 24 hrs by immunoblot analysis relative to control; assay type: cell-based
Target sequence in this assay (Q9BV68 2-311 partner limits assumed): as the sequence (Q9BV68 2-311 partner limits assumed) above
Target sequence in this assay (Q9BVS4 whole entry): as the sequence (Q9BVS4 whole entry) above

[4] = target: T1, E3 ubiquitin-protein ligase RNF126/Serine/threonine-protein kinase RIO2; assay: Molecular glue degradation activity at RNF126/RIOK2 in CHX-treated human MOLT-4 cells assessed as half life of RIOK2 at 2 uM by immunoblot analysis (reference value: 12.5 hrs); assay type: cell-based
Target sequence in this assay (Q9BV68 2-311 partner limits assumed): as the sequence (Q9BV68 2-311 partner limits assumed) above
Target sequence in this assay (Q9BVS4 whole entry): as the sequence (Q9BVS4 whole entry) above

[5] = target: T1, E3 ubiquitin-protein ligase RNF126/Serine/threonine-protein kinase RIO2; assay: Molecular glue degradation activity at RNF126/RIOK2 in MG132-treated human MOLT-4 cells assessed as induction protein degradation at 1 uM incubated for 12 hrs by immunoblot analysis; assay type: cell-based
Target sequence in this assay (Q9BV68 2-311 partner limits assumed): as the sequence (Q9BV68 2-311 partner limits assumed) above
Target sequence in this assay (Q9BVS4 whole entry): as the sequence (Q9BVS4 whole entry) above

[6] = target: T1, E3 ubiquitin-protein ligase RNF126/Serine/threonine-protein kinase RIO2; assay: Molecular glue degradation activity at RNF126/RIOK2 in MLN4924-treated human MOLT-4 cells assessed as induction protein degradation at 1 uM incubated for 12 hrs by immunoblot analysis; assay type: cell-based
Target sequence in this assay (Q9BV68 2-311 partner limits assumed): as the sequence (Q9BV68 2-311 partner limits assumed) above
Target sequence in this assay (Q9BVS4 whole entry): as the sequence (Q9BVS4 whole entry) above

[7] = target: T1, E3 ubiquitin-protein ligase RNF126/Serine/threonine-protein kinase RIO2; assay: Molecular glue degradation activity at RNF126/RIOK2 in human MOLT-4 cells assessed as increase in ubiquitination of RIOK2 at 1 uM incubated for 10 hrs by immunoblot analysis; assay type: cell-based
Target sequence in this assay (Q9BV68 2-311 partner limits assumed): as the sequence (Q9BV68 2-311 partner limits assumed) above
Target sequence in this assay (Q9BVS4 whole entry): as the sequence (Q9BVS4 whole entry) above

[8] = target: T1, E3 ubiquitin-protein ligase RNF126/Serine/threonine-protein kinase RIO2; assay: Molecular glue degradation activity at RNF126/RIOK2 in human U-937 cells assessed as induction protein degradation by immunoblot analysis; assay type: cell-based
Target sequence in this assay (Q9BVS4 whole entry): as above
Target sequence in this assay (Q9BV68 whole entry): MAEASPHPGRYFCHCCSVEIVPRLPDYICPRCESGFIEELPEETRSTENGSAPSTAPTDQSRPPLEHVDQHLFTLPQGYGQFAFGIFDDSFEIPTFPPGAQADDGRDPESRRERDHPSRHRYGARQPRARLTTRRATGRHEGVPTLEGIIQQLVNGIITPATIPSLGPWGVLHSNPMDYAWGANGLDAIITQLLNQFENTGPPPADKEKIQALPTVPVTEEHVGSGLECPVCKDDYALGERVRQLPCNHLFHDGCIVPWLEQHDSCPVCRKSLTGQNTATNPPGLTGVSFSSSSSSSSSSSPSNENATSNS

[9] = target: T1, E3 ubiquitin-protein ligase RNF126/Serine/threonine-protein kinase RIO2; assay: Molecular glue degradation activity at RNF126/RIOK2 in human K562 cells assessed as induction protein degradation by immunoblot analysis; assay type: cell-based
Target sequence in this assay (Q9BVS4 whole entry): as the sequence (Q9BVS4 whole entry) above
Target sequence in this assay (Q9BV68 whole entry): as the sequence (Q9BV68 whole entry) above

[10] = target: T1, E3 ubiquitin-protein ligase RNF126/Serine/threonine-protein kinase RIO2; assay: Molecular glue degradation activity at RNF126/RIOK2 in human ASPC1 cells assessed as induction protein degradation by immunoblot analysis; assay type: cell-based
Target sequence in this assay (Q9BVS4 whole entry): as the sequence (Q9BVS4 whole entry) above
Target sequence in this assay (Q9BV68 whole entry): as the sequence (Q9BV68 whole entry) above

[11] = target: T1, E3 ubiquitin-protein ligase RNF126/Serine/threonine-protein kinase RIO2; assay: Molecular glue degradation activity at RNF126/RIOK2 in human HeLa cells assessed as induction protein degradation by immunoblot analysis; assay type: cell-based
Target sequence in this assay (Q9BVS4 whole entry): as the sequence (Q9BVS4 whole entry) above
Target sequence in this assay (Q9BV68 whole entry): as the sequence (Q9BV68 whole entry) above

[12] = target: T1, E3 ubiquitin-protein ligase RNF126/Serine/threonine-protein kinase RIO2; assay: Molecular glue degradation activity at RNF126/RIOK2 in HEK293 cells assessed as induction protein degradation by immunoblot analysis; assay type: cell-based
Target sequence in this assay (Q9BVS4 whole entry): as the sequence (Q9BVS4 whole entry) above
Target sequence in this assay (Q9BV68 whole entry): as the sequence (Q9BV68 whole entry) above

[13] = target: T1, E3 ubiquitin-protein ligase RNF126/Serine/threonine-protein kinase RIO2; assay: Molecular glue degradation activity at RNF126/RIOK2 in human U-937 cells assessed as induction protein degradation by immunoblot analysis relative to control; assay type: cell-based
[14] = target: T1, E3 ubiquitin-protein ligase RNF126/Serine/threonine-protein kinase RIO2; assay: Molecular glue degradation activity at RNF126/RIOK2 in human OCILY3 cells assessed as induction protein degradation by immunoblot analysis relative to control; assay type: cell-based
[15] = target: T1, E3 ubiquitin-protein ligase RNF126/Serine/threonine-protein kinase RIO2; assay: Molecular glue degradation activity at RNF126/RIOK2 in human HeLa cells assessed as induction protein degradation by immunoblot analysis relative to control; assay type: cell-based
U-937 = assay: Antiproliferative activity against human U-937 cells incubated for 72 hrs by CCK8 assay; assay type: functional, cell-based; conditions: U-937, 72 h
MOLT-4 [16] = assay: Antiproliferative activity against human MOLT-4 cells incubated for 72 hrs by CCK8 assay; assay type: functional, cell-based; conditions: MOLT-4, 72 h
HL-60 = assay: Antiproliferative activity against human HL-60 cells incubated for 72 hrs by CCK8 assay; assay type: functional, cell-based; conditions: HL-60, 72 h
K562 = assay: Antiproliferative activity against human K562 cells incubated for 72 hrs by CCK8 assay; assay type: functional, cell-based; conditions: K562, 72 h
ASPC1 = assay: Antiproliferative activity against human ASPC1 cells incubated for 72 hrs by CCK8 assay; assay type: functional, cell-based; conditions: ASPC1, 72 h
A549 = assay: Antiproliferative activity against human A549 cells incubated for 72 hrs by CCK8 assay; assay type: functional, cell-based; conditions: A549, 72 h
HeLa = assay: Antiproliferative activity against human HeLa cells incubated for 72 hrs by CCK8 assay; assay type: functional, cell-based
[17] = Antiproliferative activity against HEK293 cells incubated for 72 hrs by CCK8 assay; assay type: toxicity, cell-based; conditions: human
[18] = Antiproliferative activity against mouse NIH3T3 cells incubated for 72 hrs by CCK8 assay; assay type: toxicity, cell-based
[19] = target: Serine/threonine-protein kinase RIO2 (Homo sapiens, UniProt Q9BVS4); assay: Inhibition of RIOK2 (unknown origin) ATPase activity incubated for 2 hrs in presence of ATP by ADP-Glo assay
[20] = target: T1, E3 ubiquitin-protein ligase RNF126/Serine/threonine-protein kinase RIO2; assay: Molecular glue degradation activity at RNF126/RIOK2 in human MOLT-4 cells assessed as decrease in mTOR level at 500 nM incubated for 12 hrs by immunoblot analysis; assay type: cell-based
[21] = target: T1, E3 ubiquitin-protein ligase RNF126/Serine/threonine-protein kinase RIO2; assay: Molecular glue degradation activity at RNF126/RIOK2 in human MOLT-4 cells assessed as decrease in AKT level at 500 nM incubated for 12 hrs by immunoblot analysis; assay type: cell-based
MOLT-4 [22] = assay: Induction of cell cycle arrest in human MOLT-4 cells assessed as accumulation at G2/M phase at 900 nM incubated for 24 hrs by PI staining based flow cytometry relative to control; assay type: functional
MOLT-4 [23] = assay: Induction of apoptosis in human MOLT-4 cells at 900 nM incubated for 48 hrs by Annexin V-FITC/PI staining based flow cytometry relative to control; assay type: functional
MOLT-4 [24] = assay: Induction of apoptosis in human MOLT-4 cells incubated for 48 hrs by Annexin V-FITC/PI staining based flow cytometry; assay type: functional, cell-based; conditions: dose <= 900.0 nM
MOLT-4 [25] = assay: Induction of cell cycle arrest in human MOLT-4 cells assessed as decrease in cyclin B1 level by Western blot analysis; assay type: functional, cell-based; conditions: dose <= 900.0 nM
MOLT-4 [26] = assay: Induction of cell cycle arrest in human MOLT-4 cells assessed as decrease in CDK2 level by Western blot analysis; assay type: functional, cell-based; conditions: dose <= 900.0 nM
MOLT-4 [27] = assay: Induction of apoptosis in human MOLT-4 cells assessed as decrease in PARP level by Western blot analysis; assay type: functional, cell-based; conditions: dose <= 900.0 nM
MOLT-4 [28] = assay: Induction of apoptosis in human MOLT-4 cells assessed as increase in cleaved caspase-9 level by Western blot analysis; assay type: functional, cell-based; conditions: dose <= 900.0 nM
[29] = AUClast in Sprague-Dawley rat at 5 mg/kg, iv measured for 24 hrs; assay type: ADME, organism-based; conditions: in vivo
[30] = Half life in Sprague-Dawley rat at 5 mg/kg, iv measured for 24 hrs; assay type: ADME, organism-based; conditions: in vivo
[31] = Cmax in Sprague-Dawley rat at 5 mg/kg, iv measured for 24 hrs; assay type: ADME, organism-based; conditions: in vivo
[32] = Clearance in Sprague-Dawley rat at 5 mg/kg, iv measured for 24 hrs; assay type: ADME, organism-based; conditions: in vivo
[33] = AUClast in Sprague-Dawley rat at 10 mg/kg, ip measured for 24 hrs; assay type: ADME, organism-based; conditions: in vivo
[34] = Cmax in Sprague-Dawley rat at 10 mg/kg, ip measured for 24 hrs; assay type: ADME, organism-based; conditions: in vivo
[35] = Oral bioavailability in Sprague-Dawley rat at 10 mg/kg measured for 24 hrs; assay type: ADME, organism-based; conditions: in vivo
MOLT-4 [36] = assay: Antitumor activity against human MOLT-4 cells xenografted in SCID-CB17 mouse at 10 mg/kg, ip for 18 days relative to control; assay type: functional; conditions: MOLT-4, 432 h, time 18 day, read-out: TGI
[37] = Toxicity in SCID-CB17 mouse xenografted with human MOLT-4 cells assessed as body weight loss at 10 mg/kg, ip for 18 days; assay type: organism-based; conditions: in vivo, 432 h, time 18 day

Chain of Serine/threonine-protein kinase RIO2 (Q9BVS4 whole entry): as the sequence (Q9BVS4 whole entry) above

COc1ccc(-c2ccc3[nH]c(=O)c4nnn(-c5ccc(N6CCN(C(=O)/C=C/C(=O)c7ccc(F)cc7)CC6)c(C(F)(F)F)c5)c4c3c2)cn1
DC50 [1]: 410 nM
Activity ([1]; dose <= 10.0 µM): Dose-dependent-effect
Activity [2]: Active
Emax [3]: 94.8%
T1/2 [4]: 9.6 h
Activity [5]: inactive
Activity [6]: inactive
Activity [7]: Active
DC50 [8]: 1300 nM
DC50 [9]: > 10000 nM
DC50 [10]: > 10000 nM
DC50 [11]: 8700 nM
DC50 [12]: > 10000 nM
Emax [13]: 60.4%
Emax [14]: 66.9%
Emax [15]: 50.3%
IC50 (U-937): 410 nM
IC50 (MOLT-4 [16]): 130 nM
IC50 (HL-60): 340 nM
IC50 (K562): 1140 nM
IC50 (ASPC1): 1130 nM
IC50 (A549): 1060 nM
IC50 (HeLa): 580 nM
IC50 at 72 h [17]: 1050 nM
IC50 at 72 h [18]: 1060 nM
IC50 [19]: 98 nM
Activity [20]: Active
Activity [21]: Active
Activity (MOLT-4 [22]): 39.6%
Activity (MOLT-4 [23]): 57.11%
Activity (MOLT-4 [24]): Dose-dependent-effect
Activity (MOLT-4 [25]): Dose-dependent-effect
Activity (MOLT-4 [26]): Dose-dependent-effect
Activity (MOLT-4 [27]): Dose-dependent-effect
Activity (MOLT-4 [28]): Dose-dependent-effect
AUClast [29]: 1210 ng·h/mL
half-life [30]: 0.6 h
Cmax [31]: 1440 ng/mL
clearance [32]: 69.2 mL/min/kg
AUClast [33]: 1200 ng·h/mL
Cmax [34]: 90.6 ng/mL
bioavailability [35]: 49.7%
inhibition in vivo at 10 mg/kg (MOLT-4 [36]): 18.6%
Activity [37]: Non-toxic
